Tested on: NCI-H929 complex spheroids, viability % test/control
Assay: Anticancer human tumor NCI-H929 cell line growth inhibition [RAS];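 note: compound exposure lasted seven days before viability was read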;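 for viability, T/C: 100% = DMSO vehicle control viability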
Details: for IC50: curve of first compound; for viability, T/C: stronger effect = lower value
In short: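 Multi-cell-type spheroids: tumor cells plus HUVEC endothelial cells and mesenchymal stem cells. RAS-pathway inhibitors were combined with targeted agents, each dosed in half-log steps down from clinical Cmax, or from 10 microM when Cmax was unknown.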

`C=CC(=O)N1CCN(c2nc(OCC3CCCN3C)nc3c(F)c(-c4nc(N)cc(C)c4C(F)(F)F)c(Cl)cc23)C(C)C1` (centres undefined) + C#Cc1c(F)ccc2cc(O)cc(-c3ncc4c(N5CC6CCC(C5)N6)nc(OCC56CCCN5CC(F)C6)nc4c3F)c12 showed an IC50 (second compound 0.0316 µM) of over 1000 nM, an IC50 (second compound 0.1 µM) of over 1000 nM and an IC50 (second compound 0.316 µM) of over 1000 nM. It also gave an IC50 (second compound 1 µM) of over 1000 nM, an IC50 (second compound 3.16 µM) of over 1000 nM and an IC50 (second compound 10 µM) of over 1000 nM. It also gave a viability, T/C (second compound 0.0316 µM, first compound 0.00316 µM) of 102%, a viability, T/C (second compound 0.0316 µM, first compound 0.01 µM) of 97.5% and a viability, T/C (second compound 0.0316 µM, first compound 0.0316 µM) of 99.1%. For the same compound, the viability, T/C (second compound 0.0316 µM, first compound 0.1 µM) was 97.3%, the viability, T/C (second compound 0.0316 µM, first compound 0.316 µM) was 108% and the viability, T/C (second compound 0.0316 µM, first compound 1 µM) was 103%. The viability, T/C (second compound 0.1 µM, first compound 0.00316 µM) was 98.8%, the viability, T/C (second compound 0.1 µM, first compound 0.01 µM) was 101% and the viability, T/C (second compound 0.1 µM, first compound 0.0316 µM) was 102%. It also gave a viability, T/C (second compound 0.1 µM, first compound 0.1 µM) of 106%, a viability, T/C (second compound 0.1 µM, first compound 0.316 µM) of 107% and a viability, T/C (second compound 0.1 µM, first compound 1 µM) of 112%. It also gave a viability, T/C (second compound 0.316 µM, first compound 0.00316 µM) of 96.1%, a viability, T/C (second compound 0.316 µM, first compound 0.01 µM) of 104% and a viability, T/C (second compound 0.316 µM, first compound 0.0316 µM) of 101%. For the same compound, the viability, T/C (second compound 0.316 µM, first compound 0.1 µM) was 104%, the viability, T/C (second compound 0.316 µM, first compound 0.316 µM) was 106% and the viability, T/C (second compound 0.316 µM, first compound 1 µM) was 110%. For the same compound, the viability, T/C (second compound 1 µM, first compound 0.00316 µM) was 95.8%, the viability, T/C (second compound 1 µM, first compound 0.01 µM) was 104% and the viability, T/C (second compound 1 µM, first compound 0.0316 µM) was 107%. It also gave a viability, T/C (second compound 1 µM, first compound 0.1 µM) of 105%, a viability, T/C (second compound 1 µM, first compound 0.316 µM) of 101% and a viability, T/C (second compound 1 µM, first compound 1 µM) of 112%. The viability, T/C (second compound 3.16 µM, first compound 0.00316 µM) was 103%, the viability, T/C (second compound 3.16 µM, first compound 0.01 µM) was 99.8% and the viability, T/C (second compound 3.16 µM, first compound 0.0316 µM) was 103%. The viability, T/C (second compound 3.16 µM, first compound 0.1 µM) was 104%, the viability, T/C (second compound 3.16 µM, first compound 0.316 µM) was 106% and the viability, T/C (second compound 3.16 µM, first compound 1 µM) was 115%. The viability, T/C (second compound 10 µM, first compound 0.00316 µM) was 104%, the viability, T/C (second compound 10 µM, first compound 0.01 µM) was 101% and the viability, T/C (second compound 10 µM, first compound 0.0316 µM) was 100%. The viability, T/C (second compound 10 µM, first compound 0.1 µM) was 105%, the viability, T/C (second compound 10 µM, first compound 0.316 µM) was 99.6% and the viability, T/C (second compound 10 µM, first compound 1 µM) was 104%.
Work on `CC1(C)CCC(Nc2ncc(C(F)(F)F)c(-c3c[nH]c4c(P(C)(C)=O)c(C#N)ccc34)n2)CN1` (centres undefined) + C#Cc1c(F)ccc2cc(O)cc(-c3ncc4c(N5CC6CCC(C5)N6)nc(OCC56CCCN5CC(F)C6)nc4c3F)c12 yielded an IC50 (second compound 0.0316 µM) of 6.01 nM, an IC50 (second compound 0.1 µM) of 6.55 nM and an IC50 (second compound 0.316 µM) of 6.56 nM. It also gave an IC50 (second compound 1 µM) of 6.55 nM, an IC50 (second compound 3.16 µM) of 6.8 nM and an IC50 (second compound 10 µM) of 6.8 nM. It also gave a viability, T/C (second compound 0.0316 µM, first compound 0.000949 µM) of 129%, a viability, T/C (second compound 0.0316 µM, first compound 0.003 µM) of 98.5% and a viability, T/C (second compound 0.0316 µM, first compound 0.00949 µM) of 17.9%. For the same compound, the viability, T/C (second compound 0.0316 µM, first compound 0.03 µM) was 12.8%, the viability, T/C (second compound 0.0316 µM, first compound 0.0949 µM) was 8.56% and the viability, T/C (second compound 0.0316 µM, first compound 0.3 µM) was 5.72%. It also gave a viability, T/C (second compound 0.1 µM, first compound 0.000949 µM) of 124%, a viability, T/C (second compound 0.1 µM, first compound 0.003 µM) of 116% and a viability, T/C (second compound 0.1 µM, first compound 0.00949 µM) of 18.6%. For the same compound, the viability, T/C (second compound 0.1 µM, first compound 0.03 µM) was 13.8%, the viability, T/C (second compound 0.1 µM, first compound 0.0949 µM) was 8.47% and the viability, T/C (second compound 0.1 µM, first compound 0.3 µM) was 5.88%. The viability, T/C (second compound 0.316 µM, first compound 0.000949 µM) was 127%, the viability, T/C (second compound 0.316 µM, first compound 0.003 µM) was 114% and the viability, T/C (second compound 0.316 µM, first compound 0.00949 µM) was 19.6%. It also gave a viability, T/C (second compound 0.316 µM, first compound 0.03 µM) of 18%, a viability, T/C (second compound 0.316 µM, first compound 0.0949 µM) of 8.37% and a viability, T/C (second compound 0.316 µM, first compound 0.3 µM) of 5.86%. The viability, T/C (second compound 1 µM, first compound 0.000949 µM) was 121%, the viability, T/C (second compound 1 µM, first compound 0.003 µM) was 112% and the viability, T/C (second compound 1 µM, first compound 0.00949 µM) was 19.3%. For the same compound, the viability, T/C (second compound 1 µM, first compound 0.03 µM) was 48.8%, the viability, T/C (second compound 1 µM, first compound 0.0949 µM) was 9.11% and the viability, T/C (second compound 1 µM, first compound 0.3 µM) was 5.75%. It also gave a viability, T/C (second compound 3.16 µM, first compound 0.000949 µM) of 127%, a viability, T/C (second compound 3.16 µM, first compound 0.003 µM) of 118% and a viability, T/C (second compound 3.16 µM, first compound 0.00949 µM) of 22.1%. It also gave a viability, T/C (second compound 3.16 µM, first compound 0.03 µM) of 22.5%, a viability, T/C (second compound 3.16 µM, first compound 0.0949 µM) of 9.71% and a viability, T/C (second compound 3.16 µM, first compound 0.3 µM) of 6.25%. It also gave a viability, T/C (second compound 10 µM, first compound 0.000949 µM) of 125%, a viability, T/C (second compound 10 µM, first compound 0.003 µM) of 104% and a viability, T/C (second compound 10 µM, first compound 0.00949 µM) of 23.3%. The viability, T/C (second compound 10 µM, first compound 0.03 µM) was 63.5%, the viability, T/C (second compound 10 µM, first compound 0.0949 µM) was 14.7% and the viability, T/C (second compound 10 µM, first compound 0.3 µM) was 10.9%.
